Experimental data from the supplement of paper PMC13380429.

Key:
Settings in all cases: 72 h
HepG2 [1] = assay: cell viability relative to DMSO; higher = less toxic
HepG2 [2] = assay: relative viability EC50 (midpoint between 100% and the lowest measured viability); higher = less toxic
HepG2 [3] = assay: drug sensitivity score (DSS) for viability; higher = more toxic; extreme values may be limits of the assay
U2OS [4] = assay: as above
Vero E6 [5] = assay: as above
Calu-3 [6] = assay: as above
U2OS [7] = assay: cell viability relative to DMSO; higher = less toxic
Vero E6 [8] = assay: as above
Caco-2 [9] = assay: as above
Calu-3 [10] = assay: as above
U2OS [11] = assay: relative viability EC50 (midpoint between 100% and the lowest measured viability); higher = less toxic
Vero E6 [12] = assay: as above
Caco-2 [13] = assay: drug sensitivity score (DSS) for viability; higher = more toxic; extreme values may be limits of the assay
Calu-3 [14] = assay: relative viability EC50 (midpoint between 100% and the lowest measured viability); higher = less toxic

Row | SMILES | cell viability (HepG2 [1]; 1 nM) [%] | cell viability (HepG2 [1]; 10 nM) [%] | cell viability (HepG2 [1]; 100 nM) [%] | cell viability (HepG2 [1]; 1000 nM) [%] | cell viability (HepG2 [1]; 10000 nM) [%] | relative viability EC50 (HepG2 [2]) [µM] | drug sensitivity score (HepG2 [3]) | drug sensitivity score (U2OS [4]) | drug sensitivity score (Vero E6 [5]) | drug sensitivity score (Calu-3 [6]) | cell viability (U2OS [7]; 1 nM) [%] | cell viability (U2OS [7]; 10 nM) [%] | cell viability (U2OS [7]; 100 nM) [%] | cell viability (U2OS [7]; 1000 nM) [%] | cell viability (U2OS [7]; 10000 nM) [%] | cell viability (Vero E6 [8]; 1 nM) [%] | cell viability (Vero E6 [8]; 10 nM) [%] | cell viability (Vero E6 [8]; 100 nM) [%] | cell viability (Vero E6 [8]; 1000 nM) [%] | cell viability (Vero E6 [8]; 10000 nM) [%] | cell viability (Caco-2 [9]; 1 nM) [%] | cell viability (Caco-2 [9]; 10 nM) [%] | cell viability (Caco-2 [9]; 100 nM) [%] | cell viability (Caco-2 [9]; 1000 nM) [%] | cell viability (Caco-2 [9]; 10000 nM) [%] | cell viability (Calu-3 [10]; 1 nM) [%] | cell viability (Calu-3 [10]; 10 nM) [%] | cell viability (Calu-3 [10]; 100 nM) [%] | cell viability (Calu-3 [10]; 1000 nM) [%] | cell viability (Calu-3 [10]; 10000 nM) [%] | relative viability EC50 (U2OS [11]) [µM] | relative viability EC50 (Vero E6 [12]) [µM] | drug sensitivity score (Caco-2 [13]) | relative viability EC50 (Calu-3 [14]) [µM]
1 | N#Cc1c(N)nc(SCc2ncc[nH]2)c(C#N)c1-c1ccc(O)cc1 [LUF-5834] | 102 | 115 | 103 | 105 | 98.6 | > 10 | 0 | – | – | – | – | – | – | – | – | – | – | – | – | – | – | – | – | – | – | – | – | – | – | – | – | – | – | –
2 | OC[C@H]1O[C@H](O[C@H]2[C@H](O)[C@@H](O)[C@H](O)O[C@@H]2CO)[C@H](O)[C@@H](O)[C@@H]1O [D-(+)-maltose] | – | – | – | – | – | – | 0 | 0 | 0 | – | – | – | – | – | – | – | – | – | – | – | – | – | – | – | – | – | – | – | – | – | – | – | – | –
3 | CCC[C@H]1C(=O)N2C(N(C)C)=Nc3ccc(C)cc3N2C1=O [azapropazone] | – | – | – | – | – | – | 0 | 0 | 0 | 0 | – | – | – | – | – | – | – | – | – | – | – | – | – | – | – | – | – | – | – | – | – | – | – | –
4 | CC(C)Oc1ccc(-c2nn([C@@H](C)c3oc4ccc(F)cc4c(=O)c3-c3cccc(F)c3)c3ncnc(N)c23)cc1F [TGR-1202] | 101 | 108 | 108 | 111 | 98.2 | > 10 | 0 | – | – | – | – | – | – | – | – | – | – | – | – | – | – | – | – | – | – | – | – | – | – | – | – | – | – | –
5 | CC1(N)CCN(c2cnc(-c3cccc(Cl)c3Cl)c(N)n2)CC1 [SHP099] | 91.2 | 84.8 | 103 | 93.5 | 82 | > 10 | 0.2 | 0 | 1.6 | 3.9 | 93.8 | 95.4 | 91.9 | 98.4 | 90.2 | 103 | 93.2 | 106 | 92.2 | 78.9 | 94.1 | 113 | 90.9 | 91.9 | 56.4 | 101 | 98.3 | 104 | 82.2 | 64.7 | > 10 | > 10 | 3.6 | –
6 | OCCN1CCN(CCCN2c3ccccc3Sc3ccc(Cl)cc32)CC1 [perphenazine] | 114 | 100 | 94.7 | 96 | 59.3 | – | 2.7 | 0 | 1.2 | 0.7 | 101 | 97 | 101 | 99.3 | 90.6 | 107 | 96.4 | 100 | 99.8 | 71.5 | 99.4 | 100 | 94.8 | 72.7 | 69.8 | 95.6 | 93.5 | 106 | 101 | 77.2 | > 10 | – | 5.1 | > 10
7 | NC12CC3CC(CC(C3)C1)C2 [amantadine] | – | – | – | – | – | – | 0 | 0 | 0 | 0 | – | – | – | – | – | – | – | – | – | – | – | – | – | – | – | – | – | – | – | – | – | – | – | –
8 | COc1ccc(C(=O)c2c(C)n(CCN3CCOCC3)c3ccccc23)cc1 [pravadoline] | 100 | 99.9 | 108 | 100 | 99.5 | > 10 | 0 | 2.3 | 0 | – | 92 | 97.4 | 95.5 | 99.7 | 55.5 | 106 | 107 | 105 | 100 | 95.7 | 104 | 99.7 | 91.9 | 95.1 | 50.8 | – | – | – | – | – | – | > 10 | 3.4 | –
9 | Nc1ccc(S(=O)(=O)Nc2cnc3ccccc3n2)cc1 [sulfaquinoxaline] | – | – | – | – | – | – | 0 | 0 | 0 | 0.4 | – | – | – | – | – | – | – | – | – | – | – | – | – | – | – | – | – | – | – | – | – | – | – | –
10 | C[C@H](NC(=O)C(C)(C)Oc1ccc(C(F)(F)F)cn1)[C@@H](Cc1ccc(Cl)cc1)c1cccc(C#N)c1 [taranabant] | 105 | 106 | 111 | 103 | 72.4 | – | 1 | 0 | 0.4 | 0 | 100 | 95.8 | 96.3 | 95.2 | 90.9 | 103 | 96.5 | 99.6 | 97.8 | 85.5 | 97.3 | 108 | 105 | 94.4 | 73.4 | 96.5 | 95.5 | 94.4 | 107 | 86.6 | > 10 | > 10 | 1.9 | > 10
